Assay results reported in patent publication US11964996B2, “2-alkynylmannose derivative and application thereof” (priority 2020, dated 2024).

What follows are molecules tested against T1, FimH proteins (Escherichia coli, UniProt Q1R2J4) (assay: hemagglutination inhibition (HAI) assay: UPEC UTI89 with guinea pig red blood cells). Settings: read-out: HAI EC90 (minimum concentration for inhibiting hemagglutination).
T1 construct: endogenous in cells; host or cells: UPEC strain UTI89 (whole bacteria)
Format: cell-based, uropathogenic Escherichia coli (UPEC) UTI89
Experimental: In the present example, the mannose derivatives A1 to A107 that were prepared in Examples 1 to 12 were analyzed in hemagglutination inhibition (HAI) assays to determine inhibitory effects of the compounds on the function/activity of FimH proteins.
1. Preparation of a guinea pig red blood cell solution: an adult guinea pig was anesthetized with ethyl ether, blood was sampled from the heart, placed in an EDTA blood collection tube, and centrifuged at 2,000 rpm for 5 min, serum was removed, the sample was transferred in a centrifuge tube (15 mL), sterilized PBS was added, the sample was centrifuged at 1,500 rpm for 10 min, a supernatant was removed, the sample was transferred in a centrifuge tube (50 mL), PBS was added, the sample was centrifuged at 1,500 rpm for 10 min and repeatedly washed twice, and red blood cells were slightly aspirated into a new centrifuge tube (50 mL) to obtain a 5% guinea pig red blood cell solution.
2. Preparation of a bacteria solution: a UPEC cell line UTI89 was inoculated on a medium plate and cultured in an incubator at 37° C. overnight. Single colonies were picked and inoculated in an LB medium in a sterilized conical flask, and cultured at 37° C. and 170 r/min overnight. When an OD value at 540 nm was about 0.8 on a microplate reader, the bacterial concentration was about 10^8-10^9 cfu/mL, the bacteria solution was centrifuged at 2,000 rpm for 10 min, a supernatant was removed, and 1 mL of bacteria solution was prepared into 0.1 mL of PBS bacteria solution. […] The bacteria and the medium were uniformly mixed by shaking, and reacted in an incubator at 25° C. for about 20-40 min. When the plate was read, the wells in which complete agglutination occurred were used as 4HAU for the hemagglutination titer of the bacteria. For example, if the endpoint titer of hemagglutination is 1:256, the dilution multiple of the 4HAU antigen is 1:64 (256 divided by 4). Bacteria solutions at corresponding concentrations were prepared according to the experimental results.
3. Activity assay: a compound to be tested or a standard product was placed in a 96-well microtest plate, 50 μL of drug at an initial concentration of 200 μM was placed in the first well, and from the second well, 25 μL of PBS was added to each well to dilute the drug in proportion. The drug and the medium in the first well were mixed, 25 μL of mixed drug solution was placed in the second well, the drug solution was diluted in sequence to the last well, and 25 μL of drug solution was removed. 25 μL of bacteria solution was placed in each well of the culture plate containing the diluted drug, and cultured at 37° C. for 40 min. 25 μL of 5% guinea pig red blood cell suspension was placed in each well, and slightly uniformly mixed with the drug, and the plate was placed at 4° C. for about 1 h. When results were determined, the plate was tilted 60°, and whether the red blood cells flowed like teardrops was observed.
Mannosyl proteins are expressed on the surface of red blood cells in a guinea pig, which can bind to FimH proteins of UTI89 to cause hemagglutination. It can be observed with the naked eyes that the red blood cells form film-like agglutination at the bottom of the well, and loose red dots can be seen in the center. The FimH protein inhibitor competitively binds to FimH proteins to inhibit hemagglutination. It can be observed with the naked eyes that all the red blood cells sink and concentrate at the bottom of the well to form dense dots. The minimum concentration for inhibiting hemagglutination is expressed as an EC90 value of a compound. The final concentration of the compound in the first well is 66700 nM, the concentration in the second well is half that in the first well, the concentration in the third well is half that in the second well, and so on. […] A low EC90 value indicates high activity of a compound.

Compound	EC90 [nM]
CC(C)c1cccc(C#C[C@@]2(O)[C@@H](C#Cc3ccccc3)O[C@H](CO)[C@@H](O)[C@@H]2O)c1 [Compound A19]	520
Cn1cc(C#C[C@@]2(O)[C@@H](C#Cc3cnn(C4CCC(F)(F)CC4)c3)O[C@H](CO)[C@@H](O)[C@@H]2O)cn1 [Compound A83]	2
OC[C@H]1O[C@H](C#Cc2cnn(-c3ccccc3Cl)c2)[C@](O)(C#Cc2ccccc2)[C@@H](O)[C@@H]1O [Compound A48]	1
Cc1ccc(-n2cc(C#C[C@H]3O[C@H](CO)[C@@H](O)[C@H](O)[C@@]3(O)C#CC3CC3)cn2)cc1 [Compound A94]	< 0.1
COc1ccc(-n2cc(C#C[C@H]3O[C@H](CO)[C@@H](O)[C@H](O)[C@@]3(O)C#Cc3ccccc3)cn2)cc1 [Compound A81]	< 0.1
OC[C@H]1O[C@H](C#Cc2cnn([C@H]3CCOC3)c2)[C@](O)(C#Cc2ccccc2)[C@@H](O)[C@@H]1O [Compound A49]	16
CCC#C[C@@]1(O)[C@@H](C#Cc2cnn(-c3ccc(Cl)cc3)c2)O[C@H](CO)[C@@H](O)[C@@H]1O [Compound A80]	2
OC[C@H]1O[C@H](C#Cc2cnn(-c3ccc(F)cc3)c2)[C@](O)(C#Cc2ccccc2)[C@@H](O)[C@@H]1O [Compound A68]	8
OC[C@H]1O[C@H](C#Cc2cnn(-c3ccccc3)c2)[C@](O)(C#Cc2ccccc2)[C@@H](O)[C@@H]1O [Compound A47]	0.25
OC[C@H]1O[C@H](C#Cc2cnn(-c3cccc(F)c3)c2)[C@](O)(C#Cc2ccccc2)[C@@H](O)[C@@H]1O [Compound A101]	0.25
CO[C@H]1CC[C@H](n2cc(C#C[C@H]3O[C@H](CO)[C@@H](O)[C@H](O)[C@@]3(O)C#Cc3ccccc3)cn2)CC1 [Compound A60]	2
OC[C@H]1O[C@H](C#Cc2cccc(C(F)(F)F)c2)[C@](O)(C#Cc2ccccc2)[C@@H](O)[C@@H]1O [Compound A28]	260
OC[C@H]1O[C@H](C#Cc2cnn(-c3ccc(Cl)cc3)c2)[C@](O)(C#Cc2ccccc2)[C@@H](O)[C@@H]1O [Compound A67]	0.13
OC[C@H]1O[C@H](C#Cc2cnn(-c3ccccc3Cl)c2)[C@](O)(C#CC2CC2)[C@@H](O)[C@@H]1O [Compound A70]	8
OC[C@H]1O[C@H](C#Cc2cnn([C@@H]3CCOC3)c2)[C@](O)(C#Cc2ccccc2)[C@@H](O)[C@@H]1O [Compound A50]	130
COc1cnc(-n2cc(C#C[C@H]3O[C@H](CO)[C@@H](O)[C@H](O)[C@@]3(O)C#Cc3cnn(C)c3)cn2)nc1 [Compound A71]	8
OC[C@H]1O[C@H](OC2CCC(F)(F)CC2)[C@](O)(C#Cc2ccccc2)[C@@H](O)[C@@H]1O [Compound A13]	1040
OC[C@H]1O[C@H](C#Cc2cccc3ccccc23)[C@](O)(C#Cc2ccccc2)[C@@H](O)[C@@H]1O [Compound A29]	520
OC[C@H]1O[C@H](C#Cc2cnn(-c3cccc(Cl)c3)c2)[C@](O)(C#Cc2ccccc2)[C@@H](O)[C@@H]1O [Compound A66]	0.13
OC[C@H]1O[C@H](C#Cc2cnn(-c3ccc(Cl)cc3)c2)[C@](O)(C#CC2CC2)[C@@H](O)[C@@H]1O [Compound A72]	< 0.1
OC[C@H]1O[C@H](C#Cc2cnn([C@H]3CC[C@H](O)CC3)c2)[C@](O)(C#Cc2ccccc2)[C@@H](O)[C@@H]1O [Compound A77]	2
OC[C@H]1O[C@H](OC2CCCC2)[C@](O)(C#Cc2ccccc2)[C@@H](O)[C@@H]1O [Compound A11]	520
O=c1ccc(C#C[C@H]2O[C@H](CO)[C@@H](O)[C@H](O)[C@@]2(O)C#Cc2ccccc2)cn1-c1ccccc1 [Compound A55]	64
CC(C)n1cc(C#C[C@H]2O[C@H](CO)[C@@H](O)[C@H](O)[C@@]2(O)C#Cc2ccccc2)ccc1=O [Compound A33]	8

Compound	EC90 [nM]
OC[C@H]1O[C@H](C#Cc2cnn(C3CCCOC3)c2)[C@](O)(C#Cc2ccccc2)[C@@H](O)[C@@H]1O (stereo partly drawn) [Compound A51]	16
Cc1c(C#C[C@H]2O[C@H](CO)[C@@H](O)[C@H](O)[C@@]2(O)C#Cc2ccccc2)cnn1C [Compound A36]	260
OC[C@H]1O[C@H](C#Cc2cnn(C3CCOCC3)c2)[C@](O)(C#Cc2ccccc2)[C@@H](O)[C@@H]1O [Compound A52]	4
CO[C@H]1CC[C@H](n2cc(C#C[C@H]3O[C@H](CO)[C@@H](O)[C@H](O)[C@@]3(O)C#Cc3cc(F)cc(F)c3)cn2)CC1 [Compound A75]	8
CCn1cc(C#C[C@@]2(O)[C@@H](C#Cc3cnn(-c4ccc(Cl)cc4)c3)O[C@H](CO)[C@@H](O)[C@@H]2O)cn1 [Compound A78]	< 0.1
OC[C@H]1O[C@H](C#Cc2cnn(-c3ccc(Cl)cc3)c2)[C@](O)(C#Cc2cccnc2)[C@@H](O)[C@@H]1O [Compound A73]	8
OC[C@H]1O[C@H](C#Cc2cnn(C3CCC(F)(F)CC3)c2)[C@](O)(C#Cc2ccccc2)[C@@H](O)[C@@H]1O [Compound A53]	8
OC[C@H]1O[C@H](C#Cc2cnn(-c3ccc(OC(F)(F)F)cc3)c2)[C@](O)(C#CC2CC2)[C@@H](O)[C@@H]1O [Compound A10]	0.13
O=S(=O)(O)c1cccc(C#C[C@@]2(O)[C@@H](C#Cc3cnn(-c4ccc(OC[C@H](O)CO)cc4)c3)O[C@H](CO)[C@@H](O)[C@@H]2O)c1 [Compound A89]	16
CNC(=O)c1cccc(-c2ccc(O[C@H]3O[C@H](CO)[C@@H](O)[C@H](O)[C@@]3(O)C#Cc3cnn(C)c3)c(C)c2)c1 [Compound A3]	16
OC[C@H]1O[C@H](C#Cc2cnn(-c3ncccc3Cl)c2)[C@](O)(C#Cc2ccccc2)[C@@H](O)[C@@H]1O [Compound A64]	4
Cn1cc(C#C[C@@]2(O)[C@@H](C#Cc3cnn(C4CCCCC4)c3)O[C@H](CO)[C@@H](O)[C@@H]2O)cn1 [Compound A85]	2
COCCOc1ccc(-n2cc(C#C[C@H]3O[C@H](CO)[C@@H](O)[C@H](O)[C@@]3(O)C#CC3CC3)cn2)cc1 [Compound A98]	< 0.1
CCC(C)O[C@H]1O[C@H](CO)[C@@H](O)[C@H](O)[C@@]1(O)C#Cc1cccc(OC)c1 (stereo partly drawn) [Compound A58]	520
Cn1ncc(C#C[C@H]2O[C@H](CO)[C@@H](O)[C@H](O)[C@@]2(O)C#Cc2ccccc2)c1Cl [Compound A35]	520
OC[C@H]1O[C@H](C#Cc2ccccc2)[C@](O)(C#Cc2cccc(C3CC3)c2)[C@@H](O)[C@@H]1O [Compound A20]	260
OC[C@H]1O[C@H](C#Cc2cnn(-c3ccc(O[C@@H]4CCOC4)cc3)c2)[C@](O)(C#CC2CC2)[C@@H](O)[C@@H]1O [Compound A99]	< 0.1
OC[C@H]1O[C@H](C#Cc2cnn(-c3ccc(C(F)(F)F)cc3)c2)[C@](O)(C#CC2CC2)[C@@H](O)[C@@H]1O [Compound A95]	4
OC[C@H]1O[C@H](C#Cc2cnn(C3CCCCC3)c2)[C@](O)(C#Cc2ccccc2)[C@@H](O)[C@@H]1O [Compound A46]	0.5
OC[C@H]1O[C@H](C#Cc2cccc(-c3ccccc3)c2)[C@](O)(C#Cc2ccccc2)[C@@H](O)[C@@H]1O [Compound A32]	130
CCn1cc(C#C[C@H]2O[C@H](CO)[C@@H](O)[C@H](O)[C@@]2(O)C#Cc2ccccc2)cn1 [Compound A40]	32
OC[C@H]1O[C@H](C#Cc2cnn(-c3ccc(OCC4CC4)cc3)c2)[C@](O)(C#CC2CC2)[C@@H](O)[C@@H]1O [Compound A31]	< 0.1
N#Cc1ccc(-n2cc(C#C[C@H]3O[C@H](CO)[C@@H](O)[C@H](O)[C@@]3(O)C#CC3CC3)cn2)cc1 [Compound A96]	4
O=c1ccc(C#C[C@H]2O[C@H](CO)[C@@H](O)[C@H](O)[C@@]2(O)C#Cc2ccccc2)cn1C1CCCCC1 [Compound A54]	4
